Data set [1] can be described thus: Partition coefficient (logP). The note with it: octanol/water.
The next data set deals with Salmonella typhimurium. As to the kind of experiment: Mutagenic activity in an Ames test on Salmonella Typhimurium TA98; Activity is log of revertants/nmol. In kind it is functional, Salmonella enterica subsp. enterica serovar Typhimurium. Also noted: scale not given here. For orientation: The Ames test detects mutagens through reverse mutation in bacteria.

The term logP denotes a log measure of how a compound divides between an organic and an aqueous phase. `Nc1ccc(-c2ccc([N+](=O)[O-])cc2)cc1`: in data set [1], the logP stood at 2.68.
Molecule `CC(=O)Oc1cc([N+](=O)[O-])c2ccc3cccc4ccc1c2c43` had a logP in data set [1] of 4.42. In addition, the Activity with Salmonella typhimurium is recorded as 4.22.
On to `O=[N+]([O-])c1cc([N+](=O)[O-])c2ccccc2c1`, for which, in data set [1], the log partition coefficient (logP) is 2.83. The same molecule gave an Activity with Salmonella typhimurium of -0.05.
With `O=Cc1ccc([N+](=O)[O-])cc1`, the lipophilicity (logP) in data set [1] is 1.56.
In the case of `Nc1cccc(-c2ccc([N+](=O)[O-])cc2)c1`, in data set [1], the log partition coefficient (logP) came to 2.68. For the same molecule, the Activity in the data set on Salmonella typhimurium stood at 0.25.
In data set [1], `O=[N+]([O-])c1ccc2[nH]c3ccccc3c2c1` yielded a logP of 3.51. Also, the Activity in the data set on Salmonella typhimurium is -0.7.
In turn, `O=[N+]([O-])c1ccc2c(c1)Cc1cc(F)ccc1-2` returned a logP in data set [1] of 4.11. In the data set on Salmonella typhimurium, this molecule yielded an Activity of 2.68.
For `O=[N+]([O-])c1ccc2ccc3cc4ccccc4c4ccc1c2c34`, the logP in data set [1] was determined as 5.87. Further, the Activity with Salmonella typhimurium worked out at 2.63.
Consider `O=[N+]([O-])c1cc2cccc3ccc4cccc1c4c32`, for which, in data set [1], the logP amounted to 4.69.
`O=[N+]([O-])C1=CC=CC2Nc3ccccc3NC12` (centres undefined) showed a logP in data set [1] of 2.52. In the data set on Salmonella typhimurium, this molecule showed an Activity of 0.87.
In data set [1], `O=[N+]([O-])c1cccc2cc[nH]c12` came in with a lipophilicity (logP) of 2.13.
The same measure, in the same setting: the same measure for `O=[N+]([O-])c1cccc(F)c1`: 1.9.
As for `CN1Cc2cc([N+](=O)[O-])ccc2N1`, the logP in data set [1] was 1.77. Moreover, the Activity in the data set on Salmonella typhimurium is -1.1.
The corresponding values for `O=[N+]([O-])c1ccc2c3ccccc3c3ccccc3c2c1` are 5.41 and 4.09.
The molecule `O=[N+]([O-])c1ccc2c(c1)CCN2` showed a logP in data set [1] of 2.07.
For the molecule `O=[N+]([O-])c1ccc2c3c(cccc13)-c1cc3ccccc3cc1-2`, the logP in data set [1] came to 5.87. The molecule also showed an Activity with Salmonella typhimurium of 2.76.
`Nc1ccc2ccc3ccc([N+](=O)[O-])c4ccc1c2c34`: the lipophilicity (logP) in data set [1] is 3.63. For the same molecule, in the data set on Salmonella typhimurium, the Activity is given as 2.43.
Consider `O=[N+]([O-])c1ccc2c(c1)C=CC2`, for which, in data set [1], the lipophilicity (logP) was 2.74. Besides, in the data set on Salmonella typhimurium, the Activity was found to be 0.08.
`O=[N+]([O-])c1ccc2nc3ccccc3nc2c1` registered a log partition coefficient (logP) in data set [1] of 2.52.
Same read-out and setting: the same measure for `Cn1ccc2cc([N+](=O)[O-])ccc21`: 2.5.
Regarding `O=[N+]([O-])c1cc2c3c(c1)CCc1cc([N+](=O)[O-])cc(c1-3)CC2`, the logP in data set [1] was 5.02. Moreover, in the data set with Salmonella typhimurium, the Activity was found to be 3.5.
The corresponding values for `O=[N+]([O-])c1ccc2c(c1)Oc1cc(Cl)c(Cl)cc1O2` are 6.24 and 1.73.
Turning to `O=[N+]([O-])c1ccc(Cl)cc1Cl`, in data set [1], the logP came out at 3.09.
Molecule `O=[N+]([O-])c1ccc2cccc3c2c1C=C3` displayed a log partition coefficient (logP) in data set [1] of 3.36. The Activity in the data set on Salmonella typhimurium was 1.77.
In turn, `O=[N+]([O-])c1ccc2ccc3cccc4c5c(c1c2c34)CCCC5` yielded a logP in data set [1] of 6.26. Further, the Activity in the data set on Salmonella typhimurium worked out at 0.7.
`Cc1ccccc1-c1ccc([N+](=O)[O-])c(C)c1` showed a logP in data set [1] of 4.49. Further, the Activity in the data set on Salmonella typhimurium is on record as -0.84.
Turning to `O=[N+]([O-])c1c2cccc(O)c2cc2c1ccc1ccccc12`, the lipophilicity (logP) in data set [1] is 5.06.
Consider `O=[N+]([O-])c1cc2c(cc1Cl)Oc1cc(Cl)c(Cl)cc1O2`, for which, in data set [1], the log partition coefficient (logP) came to 6.68. The same molecule yielded an Activity in the data set with Salmonella typhimurium of -0.53.
The corresponding values for `O=[N+]([O-])c1cc2c3c(ccc([N+](=O)[O-])c3c1)-c1ccccc1-2` are 4.44 and 3.78.
As for `O=[N+]([O-])c1cccc(Cl)c1`, the log partition coefficient (logP) in data set [1] was determined as 2.41.
`O=[N+]([O-])c1ccc2c3ccccc3c3cccc4ccc1c2c43` came in with a logP in data set [1] of 5.87.
`COc1cc([N+](=O)[O-])c2ncccc2c1` showed a logP in data set [1] of 1.87. The same molecule gave an Activity in the data set on Salmonella typhimurium of -1.21.
On to `Cc1cc2ccccc2cc1[N+](=O)[O-]`, for which the log partition coefficient (logP) in data set [1] worked out at 3.43. This molecule displayed an Activity in the data set on Salmonella typhimurium of 0.
For the molecule `O=[N+]([O-])c1ccc2c3c(c4c([N+](=O)[O-])ccc5ccc1c2c54)CCCC3`, the logP in data set [1] came to 6.01. This molecule also returned an Activity with Salmonella typhimurium of 2.41.
In turn, `O=[N+]([O-])c1cccc2c([N+](=O)[O-])cccc12` showed a logP in data set [1] of 2.58. Moreover, the Activity in the data set with Salmonella typhimurium is listed as 0.52.
In data set [1], `O=[N+]([O-])c1c2c(cc3ccccc13)C=CC(O)C2O` (centres undefined) gave a logP of 1.38.
Turning to `Cc1cc(-c2ccccc2)ccc1[N+](=O)[O-]`, the logP in data set [1] came to 3.99. Further, the Activity with Salmonella typhimurium is -0.1.
As for `O=[N+]([O-])c1ccc(Cl)c(Cl)c1`, the lipophilicity (logP) in data set [1] was found to be 3.12.
`Cc1ccccc1-c1ccc([N+](=O)[O-])cc1` had a logP in data set [1] of 4.27. The molecule also showed an Activity with Salmonella typhimurium of -0.23.
On to `Nc1c(Br)cc([N+](=O)[O-])cc1[N+](=O)[O-]`, for which, in data set [1], the logP was 2.78. The molecule also showed an Activity in the data set on Salmonella typhimurium of -1.32.
For `O=[N+]([O-])c1ccc2ccc3ccc(O)c4ccc1c2c34`, in that order: 4.19 and 1.49.
The corresponding values for `O=[N+]([O-])c1cccc2cccc([N+](=O)[O-])c12` are 2.52 and 0.9.
On to `O=[N+]([O-])c1c2ccccc2cc2c3c(ccc12)C(O)C(O)C=C3` (centres undefined), for which the logP in data set [1] was 2.55.
In turn, `O=[N+]([O-])c1ccc2c3ccccc3c3c([N+](=O)[O-])ccc4ccc1c2c43` returned a logP in data set [1] of 5.61. In addition, the Activity with Salmonella typhimurium came out at 1.99.
Take `O=[N+]([O-])c1cccc2c3ccccc3c3ccccc3c12`: the logP in data set [1] is 5.41.
As to `O=[N+]([O-])c1cccc2cccnc12`, the logP in data set [1] was 1.44.
`O=[N+]([O-])c1cc2c3c(c1)CCc1cccc(c1-3)CC2`: in data set [1], the logP was determined as 5.28. This molecule displayed an Activity with Salmonella typhimurium of 1.58.
In data set [1], `O=[N+]([O-])c1ccc2c(c1)Cc1cc([N+](=O)[O-])ccc1-2` yielded a logP of 3.35. Besides, the Activity in the data set with Salmonella typhimurium was 3.22.
The molecule `O=[N+]([O-])c1cccc2[nH]ccc12` came in with a logP in data set [1] of 2.13.
Take `O=[N+]([O-])c1c2c(c3ccc4cccc5ccc1c3c45)CCCC2`: the logP in data set [1] is 6.57.
In turn, `O=[N+]([O-])c1c2c(cc3ccccc13)C(O)C(O)C=C2` (centres undefined) displayed a lipophilicity (logP) in data set [1] of 3.4.
Molecule `O=[N+]([O-])c1cc2ccc3ccc4ccc5ccc6ccc1c1c6c5c4c3c21` yielded a log partition coefficient (logP) in data set [1] of 6.79. In the data set with Salmonella typhimurium, the Activity turned out to be 0.45.
`CC(=O)c1ccc([N+](=O)[O-])cc1` had a log partition coefficient (logP) in data set [1] of 1.53.
As to `O=[N+]([O-])c1ccc2c3cccc4cccc(c5cccc1c52)c43`, the logP in data set [1] was determined as 5.87.
For `O=[N+]([O-])c1ccc(F)cc1F`, the logP in data set [1] was determined as 1.89. Further, the Activity in the data set on Salmonella typhimurium is -1.66.
As for `O=[N+]([O-])c1ccc2ccc3cccc4cc(O)c1c2c34`, the logP in data set [1] amounted to 4.34. In the data set on Salmonella typhimurium, this molecule showed an Activity of 1.89.
In data set [1], `O=[N+]([O-])c1ccc2cccc3c2c1-c1ccccc1-3` showed a log partition coefficient (logP) of 4.69.
As to `CN1CCc2cc([N+](=O)[O-])ccc21`, the logP in data set [1] came to 2.86.
For `O=[N+]([O-])c1ccc(-c2ccccc2)cc1`, the logP in data set [1] amounted to 3.77. This molecule also registered an Activity in the data set with Salmonella typhimurium of -0.3.
On to `O=[N+]([O-])c1c2c(c3ccc4cccc5ccc1c3c45)CCCC2O` (centres undefined), for which the lipophilicity (logP) in data set [1] was found to be 4.78.
For `Cc1nc2cc([N+](=O)[O-])ccc2[nH]1`, the logP in data set [1] worked out at 1.94. Also, the Activity in the data set with Salmonella typhimurium is -0.51.
For the molecule `O=[N+]([O-])c1ccc2ccccc2c1`, the logP in data set [1] came to 3.24.
The molecule `O=[N+]([O-])c1ccc2ncccc2c1` registered a logP in data set [1] of 1.84. Besides, in the data set with Salmonella typhimurium, the Activity is listed as -1.08.
In turn, `O=[N+]([O-])c1ccc2ccc3c4c(cc5ccc1c2c53)C(O)C(O)C=C4` (centres undefined) displayed a logP in data set [1] of 3.01. Besides, the Activity with Salmonella typhimurium is recorded as 3.08.
For `O=[N+]([O-])c1ccc2ccc3c4ccccc4cc4ccc1c2c43`, in that order: 5.87 and 2.82.
In data set [1], `O=[N+]([O-])c1cc2ccc3cc([N+](=O)[O-])cc4ccc(c1)c2c34` displayed a logP of 4.44.
In data set [1], `Nc1ccc([N+](=O)[O-])cc1[N+](=O)[O-]` gave a logP of 1.84. Moreover, in the data set on Salmonella typhimurium, the Activity is -1.74.
As to `O=[N+]([O-])c1c2c(cc3c1ccc1ccccc13)C=CC(O)C2O` (centres undefined), in data set [1], the logP was 2.55.
In data set [1], `O=[N+]([O-])c1ccc2c(c1)Nc1cccc([N+](=O)[O-])c1N2` came in with a logP of 2.29. This molecule showed an Activity in the data set with Salmonella typhimurium of 2.02.
In turn, `O=[N+]([O-])c1cc([N+](=O)[O-])c2ccc3cccc4ccc1c2c43` displayed a logP in data set [1] of 4.44. Moreover, the Activity with Salmonella typhimurium is 5.04.
The corresponding values for `O=[N+]([O-])c1ccc2c(ccc3ccccc32)c1` are 4.23 and 2.11.
`O=[N+]([O-])c1ccc(/C=C/c2ccccc2)cc1`: the logP in data set [1] came out at 4.18.
As to `O=[N+]([O-])c1cccc2c1-c1cccc3cccc-2c13`, the lipophilicity (logP) in data set [1] came out at 4.69. In addition, the Activity with Salmonella typhimurium amounted to 1.87.
`Cn1ccc2cccc([N+](=O)[O-])c21` showed a logP in data set [1] of 2.5.
On the same count and under the same terms, for `O=[N+]([O-])c1ccc2ccc3cccc4c5ccccc5c1c2c34` the value was 5.87.
`O=[N+]([O-])c1c(O)cc2cccc3c2c1-c1ccccc1-3` showed a logP in data set [1] of 4.66. In the data set on Salmonella typhimurium, this molecule returned an Activity of 2.26.
Regarding `O=[N+]([O-])c1ccc2c3c(cccc13)CC2`, the log partition coefficient (logP) in data set [1] came to 3.85. In addition, the Activity with Salmonella typhimurium is 0.58.
In turn, `O=C1c2cc([N+](=O)[O-])ccc2-c2ccc([N+](=O)[O-])cc21` returned a lipophilicity (logP) in data set [1] of 2.84.
On the same count and under the same terms, the same measure for `O=[N+]([O-])c1ccccc1F`: 1.69.
In data set [1], `O=[N+]([O-])c1ccc(Cl)cc1` had a log partition coefficient (logP) of 2.39.
`O=[N+]([O-])c1ccc(-c2ccc([N+](=O)[O-])cc2)cc1` showed a logP in data set [1] of 3.52. This molecule had an Activity in the data set with Salmonella typhimurium of 1.17.
On to `O=[N+]([O-])c1cc2c3ccccc3ccc2c2ccccc12`, for which the logP in data set [1] was found to be 5.41. In the data set with Salmonella typhimurium, this molecule yielded an Activity of 1.75.
Take `O=Cc1ccccc1[N+](=O)[O-]` [2-NITROBENZALDEHYDE]: the Activity with Salmonella typhimurium is -1.92.
On to `O=C1OCCN1/N=C/c1ccc([N+](=O)[O-])o1` [FURAZOLIDONE], for which, in the data set with Salmonella typhimurium, the Activity came out at 2.24.
`Cc1ncc([N+](=O)[O-])n1CCO` [METRONIDAZOLE] had a lipophilicity (logP) in data set [1] of -0.02.
In turn, `O=C1CN(/N=C/c2ccc([N+](=O)[O-])o2)C(=O)N1` [NITROFURANTOIN] came in with an Activity with Salmonella typhimurium of 1.03.

Values taken from ChEMBL document CHEMBL1125820, “Structure-activity relationship of mutagenic aromatic and heteroaromatic nitro compounds. Correlation with molecular orbital energies and hydrophobicity” (J Med Chem, 1991).
